Measurements: the supplement of paper PMC13207355

Key:
Settings in all cases: exposure time: 72 h
E21 [1] = patient-derived glioblastoma stem cells of mesenchymal subtype; assay: surviving fraction (nuclei count normalised to DMSO); higher = more cells surviving (less toxic)
E57 [2] = patient-derived glioblastoma stem cells of mesenchymal subtype; assay: as above
E13 [3] = patient-derived glioblastoma stem cells of classical subtype; assay: as above
E31 [4] = patient-derived glioblastoma stem cells of proneural subtype; assay: as above
E34 [5] = patient-derived glioblastoma stem cells of proneural subtype; assay: as above
FT3469 [6] = normal neural stem cell line; assay: as above
E28 [7] = patient-derived glioblastoma stem cells of classical subtype; assay: as above
E21 [8] = assay: phenotypic distance (Euclidean, principal components) from DMSO controls (arbitrary units); higher = stronger morphological change
E57 [9] = assay: as above
E13 [10] = assay: as above
E31 [11] = assay: as above
E34 [12] = assay: as above
FT3469 [13] = assay: as above
E28 [14] = assay: as above
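Throughout, for phenotypic distance (Euclidean, principal components) from DMSO controls: cell Painting imaging in 384-well plates, CellProfiler features reduced to at least 20 principal components, Euclidean distance versus same-plate DMSO vehicle wells (0.1% v/v), median over six images per well.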
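Throughout, for surviving fraction (nuclei count normalised to DMSO): nuclei counted by high-content imaging of Hoechst-stained cells in laminin-coated 384-well plates, relative to 0.1% DMSO vehicle wells, with staurosporine as cell-death control.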

COc1cc2c[n+](C)c3c4cc5c(cc4ccc3c2cc1OC)OCO5 [Nitidine chloride]
Settings	phenotypic distance	surviving fraction
E13 [3], 4.1 nM	–	1.02
E13 [3], 12.3 nM	–	0.937
E13 [3], 37 nM	–	1.01
E13 [3], 111.1 nM	–	1.01
E13 [3], 333.3 nM	–	0.836
E13 [3], 1000 nM	–	0.752
E13 [3], 3000 nM	–	0.397
E13 [10], 4.1 nM	0.679	–
E13 [10], 12.3 nM	2.36	–
E13 [10], 37 nM	0.78	–
E13 [10], 111.1 nM	0.431	–
E13 [10], 333.3 nM	1.36	–
E13 [10], 1000 nM	1.35	–
E13 [10], 3000 nM	4.56	–
E21 [1], 4.1 nM	–	0.997
E21 [1], 12.3 nM	–	0.869
E21 [1], 37 nM	–	0.959
E21 [1], 111.1 nM	–	0.703
E21 [1], 333.3 nM	–	0.302
E21 [1], 1000 nM	–	0.295
E21 [1], 3000 nM	–	0.066
E21 [8], 4.1 nM	0.786	–
E21 [8], 12.3 nM	0.739	–
E21 [8], 37 nM	1.02	–
E21 [8], 111.1 nM	1.99	–
E21 [8], 333.3 nM	3.87	–
E21 [8], 1000 nM	4.46	–
E21 [8], 3000 nM	5.64	–
E28 [7], 4.1 nM	–	0.955
E28 [7], 12.3 nM	–	0.92
E28 [7], 37 nM	–	0.878
E28 [7], 111.1 nM	–	0.754
E28 [7], 333.3 nM	–	0.506
E28 [7], 1000 nM	–	0.575
E28 [7], 3000 nM	–	0.216
E28 [14], 4.1 nM	0.661	–
E28 [14], 12.3 nM	0.746	–
E28 [14], 37 nM	1.02	–
E28 [14], 111.1 nM	1.34	–
E28 [14], 333.3 nM	2.74	–
E28 [14], 1000 nM	2.93	–
E28 [14], 3000 nM	3.24	–
E31 [4], 4.1 nM	–	0.905
E31 [4], 12.3 nM	–	1.08
E31 [4], 37 nM	–	0.804
E31 [4], 111.1 nM	–	0.738
E31 [4], 333.3 nM	–	0.582
E31 [4], 1000 nM	–	0.599
E31 [4], 3000 nM	–	0.19
E31 [11], 4.1 nM	0.468	–
E31 [11], 12.3 nM	0.762	–
E31 [11], 37 nM	0.828	–
E31 [11], 111.1 nM	1.43	–
E31 [11], 333.3 nM	1.85	–
E31 [11], 1000 nM	2.23	–
E31 [11], 3000 nM	3.9	–
E34 [5], 4.1 nM	–	1.08
E34 [5], 12.3 nM	–	1.06
E34 [5], 37 nM	–	0.769
E34 [5], 111.1 nM	–	1.08
E34 [5], 333.3 nM	–	0.743
E34 [5], 1000 nM	–	0.706
E34 [5], 3000 nM	–	0.559
E34 [12], 4.1 nM	0.655	–
E34 [12], 12.3 nM	0.652	–
E34 [12], 37 nM	0.901	–
E34 [12], 111.1 nM	1.63	–
E34 [12], 333.3 nM	1.88	–
E34 [12], 1000 nM	2.46	–
E34 [12], 3000 nM	3.01	–
E57 [2], 4.1 nM	–	0.996
E57 [2], 12.3 nM	–	0.919
E57 [2], 37 nM	–	0.965
E57 [2], 111.1 nM	–	0.946
E57 [2], 333.3 nM	–	0.91
E57 [2], 1000 nM	–	0.923
E57 [2], 3000 nM	–	0.216
E57 [9], 4.1 nM	0.377	–
E57 [9], 12.3 nM	0.436	–
E57 [9], 37 nM	0.309	–
E57 [9], 111.1 nM	0.645	–
E57 [9], 333.3 nM	1.22	–
E57 [9], 1000 nM	1.25	–
E57 [9], 3000 nM	7	–
FT3469 [6], 4.1 nM	–	0.854
FT3469 [6], 12.3 nM	–	0.86
FT3469 [6], 37 nM	–	0.854
FT3469 [6], 111.1 nM	–	0.752
FT3469 [6], 333.3 nM	–	0.679
FT3469 [6], 1000 nM	–	0.646
FT3469 [6], 3000 nM	–	0.601
FT3469 [13], 4.1 nM	0.874	–
FT3469 [13], 12.3 nM	0.863	–
FT3469 [13], 37 nM	0.732	–
FT3469 [13], 111.1 nM	1.27	–
FT3469 [13], 333.3 nM	2.17	–
FT3469 [13], 1000 nM	2.35	–
FT3469 [13], 3000 nM	2.82	–
